The structures appear in SMILES notation.

This test has as its system MV-4-11 cells. In words: Gene expression microarray analysis (Affymetrix PrimeView) and GSEA. Format: cell-based, human. Details: RFU PODN (11730768_x_at) / Fold change /veh PODN (11730768_x_at) / RFU LINC00158 (11744669_a_at) / Fold change /veh LINC00158 (11744669_a_at) / RFU DUSP10 (11751237_a_at) / Fold change /veh DUSP10 (11751237_a_at) / RFU ID3 (11757404_x_at) / Fold change /veh ID3 (11757404_x_at) / RFU PLEKHG5 (11737974_s_at) / Fold change /veh PLEKHG5 (11737974_s_at) / RFU LRRC4B (11730491_at) / Fold change /veh LRRC4B (11730491_at) / RFU GIMAP4 (11747438_a_at) / Fold change /veh GIMAP4 (11747438_a_at) / RFU KRT8 (11758183_x_at) / Fold change /veh KRT8 (11758183_x_at) / RFU CNN1 (11734310_a_at) / Fold change /veh CNN1 (11734310_a_at) / RFU VPS37D (11726825_at) / Fold change /veh VPS37D (11726825_at) / RFU C10orf10 (11716522_x_at) / Fold change /veh C10orf10 (11716522_x_at) / RFU KIR2DL2 /// KIR2DL4 /// KIR2DL5A /// KIR2DL5B /// KIR2DS1 /// KIR2DS2 /// KIR2DS3 /// KIR2DS4 /// KIR3DL3 /// KIR3DL3 /// KIR3DS1 (11738374_at) / Fold change /veh KIR2DL2 /// KIR2DL4 /// KIR2DL5A /// KIR2DL5B /// KIR2DS1 /// KIR2DS2 /// KIR2DS3 /// KIR2DS4 /// KIR3DL3 /// KIR3DL3 /// KIR3DS1 (11738374_at) / RFU C1QL1 (11718748_at) / Fold change /veh C1QL1 (11718748_at) / RFU TMPRSS4 (11747572_a_at) / Fold change /veh TMPRSS4 (11747572_a_at) / RFU HAMP (11756126_x_at) / Fold change /veh HAMP (11756126_x_at) / RFU RNFT2 (11725882_a_at) / Fold change /veh RNFT2 (11725882_a_at) / RFU NR4A2 (11747474_a_at) / Fold change /veh NR4A2 (11747474_a_at) / RFU ABCC12 (11746883_a_at) / Fold change /veh ABCC12 (11746883_a_at) / RFU TMEM136 (11760407_x_at) / Fold change /veh TMEM136 (11760407_x_at) / RFU CLDN22 /// WWC2 (11732394_at) / Fold change /veh CLDN22 /// WWC2 (11732394_at) / RFU HLA-DPB1 (11760878_x_at) / Fold change /veh HLA-DPB1 (11760878_x_at) / RFU SPINT1 (11716480_a_at) / Fold change /veh SPINT1 (11716480_a_at) / RFU GAP43 (11754022_s_at) / Fold change /veh GAP43 (11754022_s_at) / RFU A4GNT (11735810_at) / Fold change /veh A4GNT (11735810_at) / RFU PRB3 (11715151_x_at) / Fold change /veh PRB3 (11715151_x_at) / RFU TUBB4B (11761932_at) / Fold change /veh TUBB4B (11761932_at) / RFU CAPN14 (11732068_a_at) / Fold change /veh CAPN14 (11732068_a_at) / RFU TMCC2 (11721928_a_at) / Fold change /veh TMCC2 (11721928_a_at) / RFU IRGQ (11745062_a_at) / Fold change /veh IRGQ (11745062_a_at) / RFU FAM174B (11720279_a_at) / Fold change /veh FAM174B (11720279_a_at) / RFU TMPRSS4 (11748680_a_at) / Fold change /veh TMPRSS4 (11748680_a_at) / RFU FAM212B (11763350_a_at) / Fold change /veh FAM212B (11763350_a_at) / RFU PLEKHG5 (11743358_a_at) / Fold change /veh PLEKHG5 (11743358_a_at) / RFU ZSCAN30 (11745921_a_at) / Fold change /veh ZSCAN30 (11745921_a_at) / RFU CMKLR1 (11741424_a_at) / Fold change /veh CMKLR1 (11741424_a_at) / RFU LOC101060620 /// MAPK8IP1 (11723275_at) / Fold change /veh LOC101060620 /// MAPK8IP1 (11723275_at) / RFU SPTSSB (11747773_x_at) / Fold change /veh SPTSSB (11747773_x_at) / RFU PRSS12 (11739890_at) / Fold change /veh PRSS12 (11739890_at) / RFU BIN1 (11741810_x_at) / Fold change /veh BIN1 (11741810_x_at) / RFU WNT11 (11732464_a_at) / Fold change /veh WNT11 (11732464_a_at) / RFU C10orf10 (11716521_a_at) / Fold change /veh C10orf10 (11716521_a_at) / RFU C5orf56 (11738089_at) / Fold change /veh C5orf56 (11738089_at) / RFU CYB561 (11721691_x_at) / Fold change /veh CYB561 (11721691_x_at) / RFU ANKRD19P (11752326_a_at) / Fold change /veh ANKRD19P (11752326_a_at) / RFU OR2T12 /// OR2T33 /// OR2T8 (11738714_s_at) / Fold change /veh OR2T12 /// OR2T33 /// OR2T8 (11738714_s_at) / RFU VCAN (11748164_a_at) / Fold change /veh VCAN (11748164_a_at) / RFU JSRP1 (11732532_at) / Fold change /veh JSRP1 (11732532_at) / RFU KRTAP10-11 (11738290_x_at) / Fold change /veh KRTAP10-11 (11738290_x_at) / RFU MYO3A (11730013_a_at) / Fold change /veh MYO3A (11730013_a_at) / RFU EBF3 (11725865_a_at) / Fold change /veh EBF3 (11725865_a_at) / RFU CAMK2N1 (11719241_x_at) / Fold change /veh CAMK2N1 (11719241_x_at) / RFU C5orf56 (11738088_a_at) / Fold change /veh C5orf56 (11738088_a_at) / RFU OLFML3 (11715873_a_at) / Fold change /veh OLFML3 (11715873_a_at) / RFU LOC100653217 /// NTM (11731650_a_at) / Fold change /veh LOC100653217 /// NTM (11731650_a_at) / RFU MAPK11 (11762145_a_at) / Fold change /veh MAPK11 (11762145_a_at) / RFU FIZ1 (11724087_x_at) / Fold change /veh FIZ1 (11724087_x_at) / RFU OASL (11726364_x_at) / Fold change /veh OASL (11726364_x_at) / RFU SOX15 (11748057_x_at) / Fold change /veh SOX15 (11748057_x_at) / RFU CD79A (11719716_a_at) / Fold change /veh CD79A (11719716_a_at) / RFU HIST1H1D (11736915_at) / Fold change /veh HIST1H1D (11736915_at) / RFU CASKIN2 (11723855_a_at) / Fold change /veh CASKIN2 (11723855_a_at) / RFU LOC730098 (11760151_x_at) / Fold change /veh LOC730098 (11760151_x_at) / RFU OR4N2 (11742367_at) / Fold change /veh OR4N2 (11742367_at) / RFU PRRT2 (11749266_a_at) / Fold change /veh PRRT2 (11749266_a_at) / RFU SNX32 (11753110_a_at) / Fold change /veh SNX32 (11753110_a_at) / RFU CDHR5 (11726645_a_at) / Fold change /veh CDHR5 (11726645_a_at) / RFU RCAN1 (11760418_a_at) / Fold change /veh RCAN1 (11760418_a_at) / RFU FAM167A (11723789_a_at) / Fold change /veh FAM167A (11723789_a_at) / RFU FAM26E (11764081_at) / Fold change /veh FAM26E (11764081_at) / RFU ISYNA1 (11749810_s_at) / Fold change /veh ISYNA1 (11749810_s_at) / RFU ACY1 (11761880_at) / Fold change /veh ACY1 (11761880_at) / RFU 11764098_at / Fold change /veh 11764098_at / RFU SAMD14 (11745864_x_at) / Fold change /veh SAMD14 (11745864_x_at) / RFU NPB (11741838_a_at) / Fold change /veh NPB (11741838_a_at) / RFU TMPRSS6 (11731388_a_at) / Fold change /veh TMPRSS6 (11731388_a_at) / RFU KRTAP10-2 (11738614_at) / Fold change /veh KRTAP10-2 (11738614_at) / RFU ARHGAP8 /// PRR5-ARHGAP8 (11727945_x_at) / Fold change /veh ARHGAP8 /// PRR5-ARHGAP8 (11727945_x_at) / RFU KRTAP5-7 /// NADSYN1 (11734609_at) / Fold change /veh KRTAP5-7 /// NADSYN1 (11734609_at) / RFU RASL12 (11751679_a_at) / Fold change /veh RASL12 (11751679_a_at) / RFU CDKN2B (11736163_a_at) / Fold change /veh CDKN2B (11736163_a_at) / RFU PRF1 (11729649_at) / Fold change /veh PRF1 (11729649_at) / RFU, ZNF638 /// ZNF638-IT1 / Fold change vs veh, ZNF638 /// ZNF638-IT1 / RFU, PANK3 / Fold change vs veh, PANK3 / RFU, SH3YL1 / Fold change vs veh, SH3YL1 / RFU, ZEB2 / Fold change vs veh, ZEB2 / RFU, NRIP1 / Fold change vs veh, NRIP1 / RFU, PTTG1IP / Fold change vs veh, PTTG1IP / RFU, CAPN2 / Fold change vs veh, CAPN2 / RFU, MED14 / Fold change vs veh, MED14 / RFU, SNORA58 / Fold change vs veh, SNORA58 / RFU, C1orf63 / Fold change vs veh, C1orf63 / RFU, LRRFIP1 / Fold change vs veh, LRRFIP1 / RFU, NDUFAF7 / Fold change vs veh, NDUFAF7 / RFU, SLC12A2 / Fold change vs veh, SLC12A2 / RFU, IBTK / Fold change vs veh, IBTK / RFU, ESF1 / Fold change vs veh, ESF1 / Fold change vs veh, TMEM50B / RFU, TAOK1 / Fold change vs veh, TAOK1 / RFU, ACBD3 / Fold change vs veh, ACBD3 / RFU, TMA16 / Fold change vs veh, TMA16 / RFU, RWDD3 / Fold change vs veh, RWDD3 / RFU, BCAT1 / Fold change vs veh, BCAT1 / RFU, EDEM3 / Fold change vs veh, EDEM3 / RFU, TMEM33 / Fold change vs veh, TMEM33 / RFU, WDR75 / Fold change vs veh, WDR75 / RFU, AHCTF1 / Fold change vs veh, AHCTF1 / RFU, TFRC / Fold change vs veh, TFRC / RFU, ZDHHC17 / Fold change vs veh, ZDHHC17 / RFU, NOM1 / Fold change vs veh, NOM1 / RFU, ARL8B / Fold change vs veh, ARL8B / RFU, ZBTB11 / Fold change vs veh, ZBTB11 / RFU, TAMM41 / Fold change vs veh, TAMM41 / RFU, KIAA1704 /// LOC100996395 / Fold change vs veh, KIAA1704 /// LOC100996395 / RFU, ING1 / Fold change vs veh, ING1 / RFU, TRMT61B / Fold change vs veh, TRMT61B / RFU, FUBP3 / Fold change vs veh, FUBP3 / RFU, TP53 / Fold change vs veh, TP53 / RFU, TNKS2 / Fold change vs veh, TNKS2 / RFU, ZFP14 / Fold change vs veh, ZFP14 / RFU, ACTR2 / Fold change vs veh, ACTR2 / RFU, PPP3R1 / Fold change vs veh, PPP3R1 / RFU, PIK3R1 / Fold change vs veh, PIK3R1 / RFU, HNRNPA1 / Fold change vs veh, HNRNPA1 / RFU, RNF170 / Fold change vs veh, RNF170 / RFU, ZNF28 / Fold change vs veh, ZNF28 / RFU, RNGTT / Fold change vs veh, RNGTT / RFU, OGT / Fold change vs veh, OGT / RFU, BRD1 / Fold change vs veh, BRD1 / RFU, MARS / Fold change vs veh, MARS / RFU, ZNF655 / Fold change vs veh, ZNF655 / RFU, FAHD1 / Fold change vs veh, FAHD1 / RFU, BDP1 / Fold change vs veh, BDP1 / RFU, LRRCC1 / Fold change vs veh, LRRCC1 / RFU, ARID1A / Fold change vs veh, ARID1A / RFU, ZNF146 / Fold change vs veh, ZNF146 / RFU, ZNF330 / Fold change vs veh, ZNF330 / RFU, GPN3 / Fold change vs veh, GPN3 / RFU, C9orf123 / Fold change vs veh, C9orf123 / RFU, N4BP2L2 / Fold change vs veh, N4BP2L2 / RFU, ARFIP1 / Fold change vs veh, ARFIP1 / RFU, FAM179B / Fold change vs veh, FAM179B / RFU, BCL10 / Fold change vs veh, BCL10 / RFU, UHRF1BP1L / Fold change vs veh, UHRF1BP1L / RFU, BET1 / Fold change vs veh, BET1 / RFU, CNOT2 / Fold change vs veh, CNOT2 / RFU, ZNF268 / Fold change vs veh, ZNF268 / Fold change vs veh, ZNF507 / RFU, DGCR2 / Fold change vs veh, DGCR2 / RFU, WDSUB1 / Fold change vs veh, WDSUB1 / Fold change vs veh, HSP90B1 /// MIR3652 / RFU, ADSS / Fold change vs veh, ADSS / RFU, GK / Fold change vs veh, GK / RFU, ZNF148 / Fold change vs veh, ZNF148 / RFU, TAF9 / Fold change vs veh, TAF9 / RFU, SLC1A5 / Fold change vs veh, SLC1A5 / RFU, SLMO2 / Fold change vs veh, SLMO2 / RFU, ABCC4 / Fold change vs veh, ABCC4 / RFU, LOC101060439 /// RAP1B / Fold change vs veh, LOC101060439 /// RAP1B / RFU, RFX7 / Fold change vs veh, RFX7 / RFU, GTPBP10 / Fold change vs veh, GTPBP10 / RFU, CNEP1R1 / Fold change vs veh, CNEP1R1 / RFU, BIVM-ERCC5 /// ERCC5 / Fold change vs veh, BIVM-ERCC5 /// ERCC5 / RFU, ILF3 / Fold change vs veh, ILF3 / RFU 11762660_at / Fold change /veh 11762660_at / RFU VCAN (11757783_s_at) / Fold change /veh VCAN (11757783_s_at) / RFU DDX43 (11728927_at) / Fold change /veh DDX43 (11728927_at) / RFU KRT8 (11758188_x_at) / Fold change /veh KRT8 (11758188_x_at) / RFU NKD1 (11759106_at) / Fold change /veh NKD1 (11759106_at) / RFU SRD5A1 (11742802_a_at) / Fold change /veh SRD5A1 (11742802_a_at) / RFU TPSAB1 /// TPSB2 (11721975_s_at) / Fold change /veh TPSAB1 /// TPSB2 (11721975_s_at) / RFU GSTM3 (11746129_a_at) / Fold change /veh GSTM3 (11746129_a_at) / RFU IL23R (11737362_x_at) / Fold change /veh IL23R (11737362_x_at) / RFU TMEM51 (11727254_a_at) / Fold change /veh TMEM51 (11727254_a_at) / RFU PIWIL2 (11732686_x_at) / Fold change /veh PIWIL2 (11732686_x_at) / RFU ORM1 (11744905_x_at) / Fold change /veh ORM1 (11744905_x_at) / RFU CCDC152 (11743942_at) / Fold change /veh CCDC152 (11743942_at) / RFU ECM1 (11717891_a_at) / Fold change /veh ECM1 (11717891_a_at) / RFU IL23R (11748794_a_at) / Fold change /veh IL23R (11748794_a_at) / RFU TNFAIP8L3 (11732012_x_at) / Fold change /veh TNFAIP8L3 (11732012_x_at) / RFU MBOAT4 (11741988_at) / Fold change /veh MBOAT4 (11741988_at) / RFU 11764193_at / Fold change /veh 11764193_at / RFU TMEM53 (11763286_at) / Fold change /veh TMEM53 (11763286_at) / RFU MAGEB2 (11727129_at) / Fold change /veh MAGEB2 (11727129_at) / RFU TMEM200A (11744735_a_at) / Fold change /veh TMEM200A (11744735_a_at) / RFU CCDC152 (11751479_a_at) / Fold change /veh CCDC152 (11751479_a_at) / RFU FAM211A (11726209_a_at) / Fold change /veh FAM211A (11726209_a_at) / RFU RGS16 (11746705_a_at) / Fold change /veh RGS16 (11746705_a_at) / RFU VCAN (11755009_s_at) / Fold change /veh VCAN (11755009_s_at) / RFU RHOB (11743442_s_at) / Fold change /veh RHOB (11743442_s_at) / RFU RGS16 (11720943_a_at) / Fold change /veh RGS16 (11720943_a_at) / RFU RGS16 (11720944_at) / Fold change /veh RGS16 (11720944_at) / RFU, VPS4B / Fold change vs veh, VPS4B / RFU, CREB1 / Fold change vs veh, CREB1 / RFU, DNAJC13 / Fold change vs veh, DNAJC13 / RFU, GNAQ / Fold change vs veh, GNAQ / RFU, CDK5R1 / Fold change vs veh, CDK5R1 / RFU, ZRANB3 / Fold change vs veh, ZRANB3 / RFU, CUL4A / Fold change vs veh, CUL4A / RFU, CCNY / Fold change vs veh, CCNY / RFU, UFL1 / Fold change vs veh, UFL1 / RFU, COG3 / Fold change vs veh, COG3 / RFU, DIAPH2 / Fold change vs veh, DIAPH2 / RFU, SKA2 / Fold change vs veh, SKA2 / RFU, AFF3 / Fold change vs veh, AFF3 / RFU, LMF1 / Fold change vs veh, LMF1 / RFU, IPO11 / Fold change vs veh, IPO11 / RFU, DFFB / Fold change vs veh, DFFB / RFU, FOXP1 / Fold change vs veh, FOXP1 / RFU, CARD8 / Fold change vs veh, CARD8 / RFU, STRN3 / Fold change vs veh, STRN3 / RFU, ADK / Fold change vs veh, ADK / RFU, RASSF2 / Fold change vs veh, RASSF2 / RFU, WIPF1 / Fold change vs veh, WIPF1 / RFU, LARP1B / Fold change vs veh, LARP1B / RFU, RASA1 / Fold change vs veh, RASA1 / RFU, RB1 / Fold change vs veh, RB1 / RFU, PPFIA1 / Fold change vs veh, PPFIA1 / RFU, MAT2A / Fold change vs veh, MAT2A / RFU, CCT5 / Fold change vs veh, CCT5 / RFU, WDR92 / Fold change vs veh, WDR92 / RFU, CUX1 / Fold change vs veh, CUX1 / RFU, TTC7A / Fold change vs veh, TTC7A / RFU, TMEM135 / Fold change vs veh, TMEM135 / RFU, DEPTOR / Fold change vs veh, DEPTOR / RFU, CPM / Fold change vs veh, CPM / RFU, DNAJB6 / Fold change vs veh, DNAJB6 / RFU, CACNA2D3 / Fold change vs veh, CACNA2D3 / RFU, DTX4 / Fold change vs veh, DTX4 / RFU, TFCP2 / Fold change vs veh, TFCP2 / RFU, GMCL1 /// GMCL1P1 / Fold change vs veh, GMCL1 /// GMCL1P1 / RFU, AEBP2 / Fold change vs veh, AEBP2 / RFU, SNHG1 /// SNORD22 /// SNORD25 /// SNORD26 /// SNORD27 /// SNORD28 /// SNORD29 /// SNORD31 / Fold change vs veh, SNHG1 /// SNORD22 /// SNORD25 /// SNORD26 /// SNORD27 /// SNORD28 /// SNORD29 /// SNORD31 / Fold change (Aza/veh), C12orf56 (ProbeSet 11735607_a_at) / Fold change (ACY-1035/veh), C12orf56 (ProbeSet 11735607_a_at) / Fold change (Aza/veh), FGFR1OP (ProbeSet 11751329_s_at) / Fold change (ACY-1035/veh), FGFR1OP (ProbeSet 11751329_s_at) / Fold change (Aza/veh), VPS36 (ProbeSet 11739960_a_at) / Fold change (ACY-1035/veh), VPS36 (ProbeSet 11739960_a_at) / RFU SYPL1 (11715823_x_at) / Fold change /veh SYPL1 (11715823_x_at) / RFU IGFBP7 (11715501_s_at) / Fold change /veh IGFBP7 (11715501_s_at) / RFU REEP3 (11722064_at) / Fold change /veh REEP3 (11722064_at) / RFU IGLL1 (11728026_x_at) / Fold change /veh IGLL1 (11728026_x_at): dose or concentration left out as unconfirmed. To be noted: ProbeSet 11732277_a_at; LIST D.

Regarding `Nc1ccc(-c2cccs2)cc1NC(=O)c1ccc2c(c1)cc(C1CC1)n2CCN1CCOCC1` [ACY-1035], the “RFU, FOXP1” value is 575.26 RFU.
